Like-named read-outs stand apart in the source and are kept apart here.

Assay [1] addresses HCV NS3/4A protease complex, BMS strain (UniProt P27958, C1454S/C1711G, species not given/STRAIN_BMS). The assay is described as follows: Recombinant HCV NS3/4A protease complex FRET peptide assay (BMS strain). In kind it is biochemical, HCV genotype 1a. From the text: Recombinant HCV NS3/4A Protease Complex FRET Peptide Assay
The purpose of this in vitro assay was to measure the inhibition of HCV NS3 protease complexes, derived from the BMS, H77C or J416S strains, as described below, by compounds of the present invention.
Serum from an HCV-infected patient was obtained from Dr. T. Wright, San Francisco Hospital. An engineered full-length cDNA (compliment deoxyribonucleic acid) template of the HCV genome (BMS strain) was constructed from DNA fragments obtained by reverse transcription-PCR(RT-PCR) of serum RNA (ribonucleic acid) and using primers selected on the basis of homology between other genotype 1a strains.
The BMS, H77C and J4L6S strains were used for production of recombinant NS3/4A protease complexes. […] Briefly, a three-lysine solubilizing tail was added at the 3′-end of the NS4A coding region. […] Briefly, NS3/4A expression was induced with 0.5 mM Isopropyl β-D-1-thiogalactopyranoside (IPTG) for 22 hr at 20° C. […] The crude protein extract was loaded on a Nickel—Nitrilotriacetic acid (Ni-NTA) column pre-equilibrated with buffer B (25 mM HEPES, pH8.0, 20% glycerol, 500 mM NaCl, 0.5% Triton-X100, 15 mM imidazole, 5 mM βME). The sample was loaded at a flow rate of 1 mL/min. The column was washed with 15 column volumes of buffer C (same as buffer B except with 0.2% Triton-X100). The protein was eluted with 5 column volumes of buffer D (same as buffer C except with 200 mM Imidazole).
NS3/4A protease complex-containing fractions were pooled and loaded on a desalting column Superdex-S200 pre-equilibrated with buffer D (25 mM HEPES, pH7.5, 20% glycerol, 300 mM NaCl, 0.2% Triton-X100, 10 mM βME). Sample was loaded at a flow rate of 1 mL/min. NS3/4A protease complex-containing fractions were pooled and concentrated to approximately 0.5 mg/ml.
The enzyme was stored at −80° C., thawed on ice and diluted prior to use in assay buffer. […] The sequence of this peptide is loosely based on the NS4A/NS4B natural cleavage site except there is an ester linkage rather than an amide bond at the cleavage site. The peptide substrate was incubated with one of the three recombinant NS3/4A complexes, in the absence or presence of a compound of the present invention, and the formation of fluorescent reaction product was followed in real time using a Cytofluor Series 4000.
The reagents were as follow: HEPES and Glycerol (Ultrapure) were obtained from GIBCO-BRL. Dimethyl Sulfoxide (DMSO) was obtained from Sigma. β-Mercaptoethanol was obtained from Bio Rad.
Substrate: 2 μM final concentration (from a 2 mM stock solution in DMSO stored at −20° C.). HCV NS3/4A type 1a (1b), 2-3 nM final concentration (from a 5 μM stock solution in 25 mM HEPES, pH7.5, 20% glycerol, 300 mM NaCl, 0.2% Triton-X100, 10 mM βME).
The assay was performed in a 96-well polystyrene black plate from Falcon. Each well contained 25 μl NS3/4A protease complex in assay buffer, 50 μof a compound of the present invention in 10% DMSO/assay buffer and 25 μl substrate in assay buffer. A control (no compound) was also prepared on the same assay plate. The enzyme complex was mixed with compound or control solution for 1 min before initiating the enzymatic reaction by the addition of substrate. The assay plate was read immediately using the Cytofluor Series 4000 (Perspective Biosystems). The instrument was set to read an […] at 25° C. Reactions were generally followed for approximately 15 minutes.
The percent inhibition was calculated with the following equation: 100−[(δFinh/δFcon)×100] where δF is the change in fluorescence over the linear range of the curve.

For assay [2], the system named is HCV replicon in Huh7 cells. The assay is described as follows: HCV replicon cell-based assay. The conditions noted are these: Hepatitis C virus, Huh-7; HCV replicon, Huh7 cells; read-out: EC50 range. Also on record: species or system HCV strain 1B. From the text:
HCV Replicon Cell-based Assay
This system enabled us to evaluate the effects of our HCV Protease compounds on HCV RNA replication. Briefly, using the HCV strain 1B sequence described in the Lohmann paper (Assession number:AJ238799), an HCV cDNA was generated encoding the 5′ internal ribosome entry site (IRES), the neomycin resistance gene, the EMCV (encephalomyocarditis virus)-IRES and the HCV nonstructural proteins, NS3-NS5B, and 3′ non-translated region (NTR). In vitro transcripts of the cDNA were transfected into the human hepatoma cell line, Huh7. […] Resulting cell lines were characterized for positive and negative strand RNA production and protein production over time.
Huh7 cells, constitutively expressing the HCV replicon, were grown in Dulbecco's Modified Eagle Media (DMEM) containing 10% Fetal calf serum (FCS) and 1 mg/ml G418 (Gibco-BRL). Cells were seeded the night before (1.5×10^4 cells/well) in 96-well tissue-culture sterile plates. Compound and no compound controls were prepared in DMEM containing 4% FCS, 1:100 Penicillin/Streptomysin, 1:100 L-glutamine and 5% DMSO in the dilution plate (0.5% DMSO final concentration in the assay). Compound/DMSO mixes were added to the cells and incubated for 4 days at 37° C. After 4 days, plates were rinsed thoroughly with Phosphate-Buffered Saline (PBS) (3 times 150 μl). The cells were lysed with 25 μl of a lysis assay reagent containing the FRET peptide (RET S1, as described for the in vitro enzyme assay). The lysis assay reagent was made from 5× cell Luciferase cell culture lysis reagent(Promega #E153A) diluted to 1× with distilled water, NaCl added to 150 mM final, the FRET peptide diluted to 10 μM final from a 2 mM stock in 100% DMSO. The plate was then placed into the Cytofluor 4000 instrument which had been set to 340 nm excitation/490 emission, automatic mode for 21 cycles and the plate read in a kinetic mode. EC50 determinations were carried out as described for the IC50 determinations.
Cells were lyzed using the Rneasy kit (Qiagen). […] All primers were designed with ABI Prism 7700 software and obtained from Biosearch Technologies, Novato, Calif. Samples containing known concentrations of HCV RNA transcript were run as standards. Using the following cycling protocol (50° C., 30 min; 95° C., 5 min; 40 cycles of 95° C., 15 sec, 60° C., 1 min), HCV RNA expression was quantitated as described in the Perkin Elmer manual using the ABI Prism 7700 Sequence Detector.
In general terms: A replicon is a self-replicating genome or part of one, used to study replication in cells.

The mark [3] stands for this setting: NS3/4A BMS strain; read-out: IC50 range.

By IC50 is commonly meant the point on the concentration scale where inhibition reaches its midpoint. In general, EC50 refers to the concentration at which the effect is half-maximal. Turning to `C=C[C@@H]1C[C@]1(NC(=O)[C@@H]1CC(Oc2nccc3cc(OC)ccc23)CN1C(=O)[C@@H](NC(=O)NC(C)(C)Cc1ccc(F)cc1)C(C)(C)C)C(=O)NS(=O)(=O)C1CC1` (some centres unmarked) [Compound 82], the IC50 in assay [1] (setting [3]) was less than 100 nM. For the same compound, the EC50 in assay [2] fell in the range of 100 to 1000 nM.
`C=C[C@@H]1C[C@]1(NC(=O)[C@@H]1C[C@@H](Oc2nccc3cc(OC)ccc23)CN1C(=O)[C@H](CC(=O)OC(C)(C)C)NC(=O)OC(C)(C)C)C(=O)NS(=O)(=O)C1CC1` [Compound 139]: the IC50 in assay [1] (setting [3]) was less than 100 nM. The EC50 in assay [2] is 100 to 1000 nM.
Consider `C=C[C@@H]1C[C@]1(NC(=O)[C@@H]1CC(Oc2nc(-c3ccccc3)cc3ccccc23)CN1C(=O)[C@@H](NC(=O)OC(C)(C)C)[C@H](C)OCC)C(=O)NS(=O)(=O)C1CC1` (some centres unmarked) [Compound 109], for which, in assay [1] (setting [3]), the IC50 is less than 100 nM. Also, in assay [2], the EC50 was less than 100 nM.
Turning to `C=CC1C[C@]1(NC(=O)[C@@H]1C[C@@H](Oc2nccc3cc(OC(C)(C)C)ccc23)CN1C(=O)[C@@H](NC(=O)OC(C)(C)C)C(C)(C)C)C(=O)NS(=O)(=O)C1CC1` (stereo partly drawn) [Compound 193, BOCNH-P3(L-tert-BuGly)-P2[(4R)-(6-tert-butoxy isoquinolin-1-oxo)-S-proline]-P1(1R,2S Vinyl Acca)-CONHSO2-Cyclopropane], in assay [1] (setting [3]), the IC50 was less than 100 nM. In addition, in assay [2], the EC50 lay within 100 to 1000 nM.
Consider `C=C[C@@H]1C[C@]1(NC(=O)[C@@H]1C[C@@H](Oc2ccnc(-c3ccccc3)c2)CN1C(=O)[C@@H](NC(=O)OC1CCCC1)C(C)(C)C)C(=O)NS(=O)(=O)C1CC1` [Compound 421], for which, in assay [1] (setting [3]), the IC50 was less than 100 nM. Also, the EC50 in assay [2] was 100 to 1000 nM.
Turning to `C=C[C@@H]1C[C@]1(NC(=O)[C@@H]1C[C@@H](Oc2nccc3cc(OC)ccc23)CN1C(=O)[C@@H](NC(=O)OC(C)(C)C(F)(F)F)[C@H](C)OC)C(=O)NS(=O)(=O)C1CC1` [Compound 106], the IC50 in assay [1] (setting [3]) is less than 100 nM. Moreover, the EC50 in assay [2] is less than 100 nM.
As to `C=C[C@@H]1C[C@]1(NC(=O)[C@@H]1CC(Oc2nccc3cc(OC)ccc23)CN1C(=O)[C@@H](NC(=O)OC(C)(C)C(Cl)(Cl)Cl)C(C)(C)C)C(=O)NS(=O)(=O)C1CC1` (some centres unmarked) [Compound 68], the 50% inhibitory concentration (IC50) in assay [1] (setting [3]) was less than 100 nM. In addition, the EC50 in assay [2] was less than 100 nM.
Regarding `C=CC1C[C@]1(NC(=O)[C@@H]1C[C@@H](Oc2cc(C(F)(F)F)nc3ccc(F)cc23)CN1C(=O)[C@@H](NC(=O)OC(C)(C)C)C(C)(C)C)C(=O)NS(=O)(=O)C1CC1` (stereo partly drawn) [Compound 238, BOCNH-P3(L-t-BuGly)-P2[(4R)-(2-trifluoro-6-fluoroquinoline-4-oxo)-S-proline]-P1(1R,2S VinylAcca)-CONHSO2Cyclopropane], the IC50 in assay [1] (setting [3]) was less than 100 nM. Also, the EC50 in assay [2] is 100 to 1000 nM.
For `C=C[C@@H]1C[C@]1(NC(=O)[C@@H]1C[C@@H](Oc2nccc3ccccc23)CN1C(=O)[C@@H](NC(=O)Oc1ccccc1OC)C(C)(C)C)C(=O)NS(=O)(=O)C1CC1` [Compound 127], the IC50 in assay [1] (setting [3]) was less than 100 nM. Further, the EC50 in assay [2] fell in the range of 100 to 1000 nM.
Take `C=C[C@@H]1CC1(NC(=O)[C@@H]1CC(Oc2nccc3cc(OC)ccc23)CN1C(=O)[C@@H](NC(=O)OC1CCCC1)C(C)(C)C)C(=O)NS(=O)(=O)C1CC1` (some centres unmarked) [Compound 70]: the IC50 in assay [1] (setting [3]) was less than 100 nM. In assay [2], the EC50 is less than 100 nM.
On to `C=CC1C[C@]1(NC(=O)[C@@H]1C[C@@H](COc2ccnc(-c3cccs3)c2)CN1C(=O)[C@@H](NC(=O)OC)C(C)(C)C)C(=O)NS(=O)(=O)C1CC1` (some centres unmarked) [Compound 350], for which, in assay [1] (read-out: IC50 range; NS3/4A BMS strain), the half-maximal inhibitory concentration (IC50) lay within 100 to 1000 nM. Further, the EC50 in assay [2] lay in the range of 10000 to 100000 nM.
As to `C=C[C@@H]1C[C@]1(NC(=O)[C@@H]1CC(Oc2nccc3cc(OC)ccc23)CN1C(=O)[C@H](CCC)N(C)C(=O)OC(C)(C)C)C(=O)NS(=O)(=O)C1CC1` (some centres unmarked) [Compound 88], the IC50 in assay [1] (setting [3]) was 1000 to 10000 nM. In assay [2], the EC50 is 10000 to 100000 nM.
In the case of `C=CC1C[C@]1(NC(=O)[C@@H]1C[C@@H](Oc2nsc3ccccc23)CN1C(=O)[C@@H](NC(=O)OC(C)(C)C)C(C)(C)C)C(=O)NS(=O)(=O)C1CC1` (some centres unmarked) [Compound 324], in assay [1] (setting [3]), the IC50 was less than 100 nM. The EC50 in assay [2] fell in the range of 100 to 1000 nM.

Values taken from patent publication US7915291B2, “Hepatitis C virus inhibitors” (Bristol-Myers Squibb Company, priority 2002, dated 2011).
